From patent US12252524B2, “GIP/GLP1 co-agonist compounds” (Eli Lilly and Company, priority 2018, dated 2025)
Numbered stars: 1 amine (or outer) side, 2 acyl side, 3 side chain; on linkers, the order of the positions; unused ones are H or OH. Square brackets hold non-standard residues; d marks the D form. Side chains are listed from the residue outwards. Peptide text beside a SMILES is read from it. * marks the point of attachment. C20 diacid = O=C(O)CCCCCCCCCCCCCCCCCCC(=O)*; C18 diacid = O=C(O)CCCCCCCCCCCCCCCCC(=O)*; γGlu = O=C(O)[C@H](CCC(=O)[*:2])N[*:1]; αMeY = C[C@](N)(Cc1ccc(O)cc1)C(=O)O; αMeL = CC(C)C[C@](C)(N)C(=O)O; Orn = NCCC[C@H](N)C(=O)O; Dap = NC[C@H](N)C(=O)O; AEEA = NCCOCCOCC(=O)O; Aib = CC(C)(N)C(=O)O

Key:
[1] = biological target: T1, human GLP-1R (Homo sapiens, UniProt P43220); assay: GLP-1R HEK293 cell membrane [35S]GTPγS binding assay; format: biochemical; parameters: expressed in transfected cells; host or cells: HEK293 cells expressing human GLP-1R; membranes; settings: HEK293 cell membranes expressing human GLP-1R, [35S]GTPγS binding; read-out: hGLP1R GTPgS Rel EC50 nM (SEM, n)
T1 sequence (P43220 24-463): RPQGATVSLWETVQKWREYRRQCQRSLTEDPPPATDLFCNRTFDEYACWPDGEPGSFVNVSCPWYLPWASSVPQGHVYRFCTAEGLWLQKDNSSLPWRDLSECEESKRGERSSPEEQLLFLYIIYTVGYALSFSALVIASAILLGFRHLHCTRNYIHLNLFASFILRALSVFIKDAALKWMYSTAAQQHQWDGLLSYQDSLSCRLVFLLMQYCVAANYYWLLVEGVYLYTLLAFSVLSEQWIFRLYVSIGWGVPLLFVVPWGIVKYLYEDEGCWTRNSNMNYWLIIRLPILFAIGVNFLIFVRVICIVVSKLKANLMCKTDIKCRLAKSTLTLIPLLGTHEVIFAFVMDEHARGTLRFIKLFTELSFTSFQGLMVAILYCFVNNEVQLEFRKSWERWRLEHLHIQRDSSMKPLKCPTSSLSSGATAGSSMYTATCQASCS
Summary of the method: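 Membranes from HEK293 cells expressing the receptor incubated with peptide and […] [35S]GTPγS in HEPES pH 7.4 buffer with NaCl, MgCl2, saponin and BSA, 30 min at room temperature. Gαs-bound label captured by anti-Gαs antibody/SPA beads and counted; EC50 from four-parameter logistic fit.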

[2] = biological target: T2, gastric inhibitory peptide receptor (GIPR) (Homo sapiens, UniProt P48546); assay: cAMP pharmacological functional assay in presence of casein, hGIPR; format: cell-based; settings: HEK293 cells expressing hGIPR, 0.1% Casein, geometric mean; read-out: hGIPR cAMP Rel EC50 nM (SEM, n)
T2 sequence (P48546 22-466): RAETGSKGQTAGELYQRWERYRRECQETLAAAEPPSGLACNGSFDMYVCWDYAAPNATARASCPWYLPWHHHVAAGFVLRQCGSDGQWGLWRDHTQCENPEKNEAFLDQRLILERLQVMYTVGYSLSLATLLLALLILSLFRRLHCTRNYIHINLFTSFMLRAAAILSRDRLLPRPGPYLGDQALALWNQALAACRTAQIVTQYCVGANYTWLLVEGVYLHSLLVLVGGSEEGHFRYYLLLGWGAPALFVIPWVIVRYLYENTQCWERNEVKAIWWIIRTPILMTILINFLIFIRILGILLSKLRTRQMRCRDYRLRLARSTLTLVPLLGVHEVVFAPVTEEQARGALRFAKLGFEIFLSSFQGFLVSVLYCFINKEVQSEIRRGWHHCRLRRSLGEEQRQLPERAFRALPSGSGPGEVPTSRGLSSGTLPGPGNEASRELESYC

[3] = biological target: human GLP-1 receptor (GLP-1R) (Homo sapiens, UniProt P43220); assay: cAMP pharmacological functional assay in presence of casein, hGLP-1R; format: cell-based; settings: HEK293 cells expressing hGLP-1R, 0.1% Casein, geometric mean; read-out: hGLP1R cAMP Rel EC50 nM (SEM, n)
Sequence of human GLP-1 receptor (GLP-1R) (P43220 24-463): as the sequence (P43220 24-463) above

[4] = biological target: T1, human GLP-1R; assay: GLP-1R CHO cell β-arrestin recruitment assay; format: cell-based; parameters: host or cells: CHO-K1 PathHunter cells, assay-ready frozen; settings: for EC50: CHO-K1 cells, PathHunter β-arrestin-2 recruitment, 0.1% casein, read-out: hGLP1R B-Arrestin2 Rel EC50 uM (SEM, n); for hGLP1R B-Arrestin2 % Top: normalized to GLP-1 maximum control
Summary of the method: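 PathHunter CHO-K1 cells with ProLink-tagged human GLP-1R and enzyme-acceptor-tagged β-arrestin-2 treated with serially diluted peptides in assay buffer containing 0.1% hydrolyzed casein, 90 min at 37 °C.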

Row | SMILES | EC50 [1] [nM] | EC50 [2] [nM] | EC50 [3] [nM] | EC50 [4] [µM] | hGLP1R B-Arrestin2 % Top [4] [%]
1 | CC[C@H](C)[C@H](NC(=O)[C@H](CC(C)C)NC(=O)[C@](C)(Cc1ccc(O)cc1)NC(=O)[C@H](CCC(=O)O)NC(=O)[C@@H](NC(=O)[C@H](Cc1ccccc1)NC(=O)[C@H](C)NC(=O)C(C)(C)NC(=O)[C@H](CCC(N)=O)NC(=O)[C@H](C)NC(=O)[C@H](CCCCNC(=O)COCCOCCNC(=O)COCCOCCNC(=O)CC[C@H](NC(=O)CCCCCCCCCCCCCCCCCCC(=O)O)C(=O)O)NC(=O)[C@H](CCCN)NC(=O)[C@H](CC(=O)O)NC(=O)[C@H](CC(C)C)NC(=O)[C@](C)(CC(C)C)NC(=O)[C@@H](NC(=O)[C@H](CO)NC(=O)[C@H](Cc1ccc(O)cc1)NC(=O)[C@H](CC(=O)O)NC(=O)[C@H](CO)NC(=O)[C@@H](NC(=O)[C@H](Cc1ccccc1)NC(=O)[C@@H](NC(=O)CNC(=O)[C@H](CCC(=O)O)NC(=O)C(C)(C)NC(=O)[C@H](N)Cc1ccc(O)cc1)[C@@H](C)O)[C@@H](C)O)[C@@H](C)CC)[C@@H](C)CC)C(=O)N[C@@H](C)C(=O)NCC(=O)NCC(=O)N1CCC[C@H]1C(=O)N[C@@H](CO)C(=O)N[C@@H](CO)C(=O)NCC(=O)N[C@@H](C)C(=O)N1CCC[C@H]1C(=O)N1CCC[C@H]1C(=O)N1CCC[C@H]1C(=O)N[C@@H](CO)C(N)=O [Example 366] (H-[dY][Aib]EGTFTSDYSI[αMeL]LD[Orn]K([AEEA-AEEA-γGlu-C20 diacid])AQ[Aib]AFIE[αMeY]LIAGGPSSGAPPPS-NH2) | 0.409 | 0.0889 | 0.366 | 0.00557 | 21.2
2 | CC[C@H](C)[C@H](NC(=O)[C@H](CC(C)C)NC(=O)[C@H](Cc1ccc(O)cc1)NC(=O)[C@H](CCC(=O)O)NC(=O)[C@@H](NC(=O)[C@H](Cc1ccccc1)NC(=O)[C@H](CCC(=O)O)NC(=O)C(C)(C)NC(=O)[C@H](CCC(N)=O)NC(=O)[C@H](C)NC(=O)[C@H](CCCCNC(=O)COCCOCCNC(=O)COCCOCCNC(=O)CC[C@H](NC(=O)CCCCCCCCCCCCCCCCCCC(=O)O)C(=O)O)NC(=O)[C@H](CN)NC(=O)[C@H](CC(=O)O)NC(=O)[C@H](CC(C)C)NC(=O)[C@](C)(CC(C)C)NC(=O)[C@@H](NC(=O)[C@H](CO)NC(=O)[C@H](Cc1ccc(O)cc1)NC(=O)[C@H](CC(=O)O)NC(=O)[C@H](CO)NC(=O)[C@@H](NC(=O)[C@H](Cc1ccccc1)NC(=O)[C@@H](NC(=O)CNC(=O)[C@H](CCC(=O)O)NC(=O)C(C)(C)NC(=O)[C@H](N)Cc1ccc(O)cc1)[C@@H](C)O)[C@@H](C)O)[C@@H](C)CC)[C@@H](C)CC)C(=O)N[C@@H](C)C(=O)NCC(=O)NCC(=O)N1CCC[C@H]1C(=O)N[C@@H](CO)C(=O)N[C@@H](CO)C(=O)NCC(=O)N[C@@H](C)C(=O)N1CCC[C@H]1C(=O)N1CCC[C@H]1C(=O)N1CCC[C@H]1C(=O)N[C@@H](CO)C(N)=O [Example 351] (H-[dY][Aib]EGTFTSDYSI[αMeL]LD[Dap]K([AEEA-AEEA-γGlu-C20 diacid])AQ[Aib]EFIEYLIAGGPSSGAPPPS-NH2) | 0.563 | 0.298 | 0.149 | 0.0196 | 23.5
3 | CC[C@H](C)[C@H](NC(=O)[C@H](CC(C)C)NC(=O)[C@H](Cc1ccc(O)cc1)NC(=O)[C@H](CCC(=O)O)NC(=O)[C@@H](NC(=O)[C@H](Cc1ccccc1)NC(=O)[C@H](CCC(=O)O)NC(=O)C(C)(C)NC(=O)[C@H](CCC(N)=O)NC(=O)[C@H](C)NC(=O)[C@H](CCCCNC(=O)COCCOCCNC(=O)COCCOCCNC(=O)CC[C@H](NC(=O)CCCCCCCCCCCCCCCCCCC(=O)O)C(=O)O)NC(=O)[C@H](CCCN)NC(=O)[C@H](CC(=O)O)NC(=O)[C@H](CC(C)C)NC(=O)[C@](C)(CC(C)C)NC(=O)[C@@H](NC(=O)[C@H](CO)NC(=O)[C@H](Cc1ccc(O)cc1)NC(=O)[C@H](CC(=O)O)NC(=O)[C@H](CO)NC(=O)[C@@H](NC(=O)[C@H](Cc1ccccc1)NC(=O)[C@@H](NC(=O)CNC(=O)[C@H](CCC(=O)O)NC(=O)C(C)(C)NC(=O)[C@H](N)Cc1ccc(O)cc1)[C@@H](C)O)[C@@H](C)O)[C@@H](C)CC)[C@@H](C)CC)C(=O)N[C@@H](C)C(=O)NCC(=O)NCC(=O)N1CCC[C@H]1C(=O)N[C@@H](CO)C(=O)N[C@@H](CO)C(=O)NCC(N)=O [Example 370] (H-[dY][Aib]EGTFTSDYSI[αMeL]LD[Orn]K([AEEA-AEEA-γGlu-C20 diacid])AQ[Aib]EFIEYLIAGGPSSG-NH2) | 0.428 | 0.117 | 0.186 | 0.0099 | 23.0
4 | CC[C@H](C)[C@H](NC(=O)[C@H](CC(C)C)NC(=O)[C@](C)(Cc1ccc(O)cc1)NC(=O)[C@H](CCC(=O)O)NC(=O)[C@@H](NC(=O)[C@H](Cc1ccccc1)NC(=O)[C@H](CCC(=O)O)NC(=O)C(C)(C)NC(=O)[C@H](CCC(N)=O)NC(=O)[C@H](C)NC(=O)[C@H](CCCCNC(=O)COCCOCCNC(=O)COCCOCCNC(=O)CC[C@H](NC(=O)CCCCCCCCCCCCCCCCC(=O)O)C(=O)O)NC(=O)[C@H](CCCN)NC(=O)[C@H](CC(=O)O)NC(=O)[C@H](CC(C)C)NC(=O)[C@](C)(CC(C)C)NC(=O)[C@@H](NC(=O)[C@H](CO)NC(=O)[C@H](Cc1ccc(O)cc1)NC(=O)[C@H](CC(=O)O)NC(=O)[C@H](CO)NC(=O)[C@@H](NC(=O)[C@H](Cc1ccccc1)NC(=O)[C@@H](NC(=O)CNC(=O)[C@H](CCC(=O)O)NC(=O)C(C)(C)NC(=O)[C@H](N)Cc1ccc(O)cc1)[C@@H](C)O)[C@@H](C)O)[C@@H](C)CC)[C@@H](C)CC)C(=O)N[C@@H](C)C(=O)NCC(=O)NCC(=O)N1CCC[C@H]1C(=O)N[C@@H](CO)C(=O)N[C@@H](CO)C(=O)NCC(=O)N[C@@H](C)C(=O)N1CCC[C@H]1C(=O)N1CCC[C@H]1C(=O)N1CCC[C@H]1C(=O)N[C@@H](CO)C(N)=O [Example 375] (H-[dY][Aib]EGTFTSDYSI[αMeL]LD[Orn]K([AEEA-AEEA-γGlu-C18 diacid])AQ[Aib]EFIE[αMeY]LIAGGPSSGAPPPS-NH2) | 0.419 | 0.0471 | 0.152 | 0.0114 | 24.2
5 | CC[C@H](C)[C@H](NC(=O)[C@H](CC(C)C)NC(=O)[C@](C)(Cc1ccc(O)cc1)NC(=O)[C@H](CCC(=O)O)NC(=O)[C@@H](NC(=O)[C@H](Cc1ccccc1)NC(=O)[C@H](C)NC(=O)C(C)(C)NC(=O)[C@H](CCC(N)=O)NC(=O)[C@H](C)NC(=O)[C@H](CCCCNC(=O)COCCOCCNC(=O)CC[C@H](NC(=O)CCCCCCCCCCCCCCCCCCC(=O)O)C(=O)O)NC(=O)[C@H](CCCCN)NC(=O)[C@H](CC(=O)O)NC(=O)[C@H](CC(C)C)NC(=O)[C@](C)(CC(C)C)NC(=O)[C@@H](NC(=O)[C@H](CO)NC(=O)[C@H](Cc1ccc(O)cc1)NC(=O)[C@H](CC(=O)O)NC(=O)[C@H](CO)NC(=O)[C@@H](NC(=O)[C@H](Cc1ccccc1)NC(=O)[C@@H](NC(=O)CNC(=O)[C@H](CCC(=O)O)NC(=O)C(C)(C)NC(=O)[C@H](N)Cc1ccc(O)cc1)[C@@H](C)O)[C@@H](C)O)[C@@H](C)CC)[C@@H](C)CC)C(=O)N[C@@H](C)C(=O)NCC(=O)NCC(=O)N1CCC[C@H]1C(=O)N[C@@H](CO)C(=O)N[C@@H](CO)C(=O)NCC(=O)N[C@@H](C)C(=O)N1CCC[C@H]1C(=O)N1CCC[C@H]1C(=O)N1CCC[C@H]1C(=O)N[C@@H](CO)C(N)=O [Example 373] (H-[dY][Aib]EGTFTSDYSI[αMeL]LDKK([AEEA-γGlu-C20 diacid])AQ[Aib]AFIE[αMeY]LIAGGPSSGAPPPS-NH2) | 0.336 | 0.185 | 0.436 | 0.00954 | 22.9
